Common to all, as to type: biochemical
In experiment [1] the target is T1, recombinant human PREP (rhPREP) (Homo sapiens, UniProt P48147).
T1 sequence (P48147 1-710): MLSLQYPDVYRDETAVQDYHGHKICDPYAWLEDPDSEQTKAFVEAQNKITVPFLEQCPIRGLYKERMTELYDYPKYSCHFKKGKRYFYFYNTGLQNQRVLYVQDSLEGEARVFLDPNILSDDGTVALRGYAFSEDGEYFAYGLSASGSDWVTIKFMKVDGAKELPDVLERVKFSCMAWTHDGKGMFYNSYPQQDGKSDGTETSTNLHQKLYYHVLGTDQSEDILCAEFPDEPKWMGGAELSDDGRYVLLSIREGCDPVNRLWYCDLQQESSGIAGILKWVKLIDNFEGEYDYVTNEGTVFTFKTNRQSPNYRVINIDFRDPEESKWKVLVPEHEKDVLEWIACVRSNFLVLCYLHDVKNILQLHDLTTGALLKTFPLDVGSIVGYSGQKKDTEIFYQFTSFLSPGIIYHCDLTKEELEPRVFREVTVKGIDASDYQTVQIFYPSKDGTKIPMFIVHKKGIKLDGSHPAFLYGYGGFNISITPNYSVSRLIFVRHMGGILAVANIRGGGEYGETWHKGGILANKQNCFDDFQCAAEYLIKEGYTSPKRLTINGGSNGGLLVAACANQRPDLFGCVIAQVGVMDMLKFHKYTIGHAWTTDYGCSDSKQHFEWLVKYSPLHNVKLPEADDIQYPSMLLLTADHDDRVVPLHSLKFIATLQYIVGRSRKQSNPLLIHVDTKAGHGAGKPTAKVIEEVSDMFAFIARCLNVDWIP
Description: PREP enzymatic activity assay. The following applies: Z-Gly-Pro-AMC substrate. As for the experimental part: (§1) 7-Amino-4-Methylcoumarin (AMC) release was detected by measuring fluorescence at Ex/Em 380/460 nm using a Multifunction Microplate Reader (Synergy 4, Biotek). All measurements were carried out in triplicate.

Experiment [2] has as its target T2, recombinant human DPP9 (rhDPP9) (Homo sapiens, UniProt Q86TI2).
T2 construct: purchased R&S system (so in the source)
Description: DPP9 enzymatic activity assay. Particulars: H-Gly-Pro-AMC substrate. As to the method: as §1

The target of experiment [3] is T3, recombinant human DPPIV (rhDPPIV) (Homo sapiens, UniProt P27487).
T3 construct: purchased R&S system (so in the source)
T3 sequence (P27487 whole entry): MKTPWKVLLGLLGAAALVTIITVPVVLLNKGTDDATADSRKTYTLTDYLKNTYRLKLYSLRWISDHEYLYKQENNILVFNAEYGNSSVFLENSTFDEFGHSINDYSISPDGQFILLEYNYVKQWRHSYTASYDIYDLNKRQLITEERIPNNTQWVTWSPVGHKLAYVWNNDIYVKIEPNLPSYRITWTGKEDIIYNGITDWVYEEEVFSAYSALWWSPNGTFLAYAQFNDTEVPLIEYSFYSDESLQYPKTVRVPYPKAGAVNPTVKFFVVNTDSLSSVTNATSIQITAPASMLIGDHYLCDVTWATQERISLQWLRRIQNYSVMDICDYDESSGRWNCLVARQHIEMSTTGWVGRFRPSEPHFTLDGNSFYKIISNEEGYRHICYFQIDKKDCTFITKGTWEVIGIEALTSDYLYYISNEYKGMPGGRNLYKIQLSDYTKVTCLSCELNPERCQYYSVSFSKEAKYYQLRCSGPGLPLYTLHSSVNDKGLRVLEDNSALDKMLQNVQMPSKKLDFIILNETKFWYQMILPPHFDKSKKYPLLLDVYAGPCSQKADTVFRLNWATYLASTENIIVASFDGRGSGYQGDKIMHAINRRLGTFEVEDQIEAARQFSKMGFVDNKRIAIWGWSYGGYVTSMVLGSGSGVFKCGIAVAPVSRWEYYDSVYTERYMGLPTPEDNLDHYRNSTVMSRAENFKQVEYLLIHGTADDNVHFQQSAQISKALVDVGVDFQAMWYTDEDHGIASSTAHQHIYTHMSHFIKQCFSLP
Description: DPPIV enzymatic activity assay. The following applies: H-Gly-Pro-pNA substrate.

In experiment [4] the target is T4, recombinant human FAPα (rhFAPα) (Homo sapiens, UniProt Q12884).
T4 construct: purchased R&S system (so in the source)
T4 sequence (Q12884 1-760): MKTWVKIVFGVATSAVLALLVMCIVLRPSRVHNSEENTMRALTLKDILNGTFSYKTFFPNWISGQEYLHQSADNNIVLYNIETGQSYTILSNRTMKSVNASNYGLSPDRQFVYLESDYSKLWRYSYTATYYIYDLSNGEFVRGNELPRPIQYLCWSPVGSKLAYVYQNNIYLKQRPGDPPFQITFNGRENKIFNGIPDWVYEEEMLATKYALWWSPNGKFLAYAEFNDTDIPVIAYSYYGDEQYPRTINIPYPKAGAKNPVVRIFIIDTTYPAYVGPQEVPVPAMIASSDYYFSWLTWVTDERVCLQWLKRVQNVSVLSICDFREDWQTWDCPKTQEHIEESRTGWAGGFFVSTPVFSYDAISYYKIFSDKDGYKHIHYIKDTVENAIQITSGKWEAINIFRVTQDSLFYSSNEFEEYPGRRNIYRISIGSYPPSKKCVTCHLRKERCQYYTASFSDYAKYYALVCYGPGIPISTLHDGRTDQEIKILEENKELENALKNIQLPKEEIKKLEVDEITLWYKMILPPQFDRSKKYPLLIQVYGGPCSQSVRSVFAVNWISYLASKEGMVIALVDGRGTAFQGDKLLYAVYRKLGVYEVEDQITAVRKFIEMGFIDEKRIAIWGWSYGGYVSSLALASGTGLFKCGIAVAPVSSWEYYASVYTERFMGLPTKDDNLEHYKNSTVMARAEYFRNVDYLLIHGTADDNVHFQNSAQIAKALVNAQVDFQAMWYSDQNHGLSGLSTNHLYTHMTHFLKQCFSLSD
Description: FAPα enzymatic exopeptidase (dipeptidase) activity assay. The following applies: for inhibition at 1 µM: 1 μM test compound, Z-Gly-Pro-AMC substrate, read-out: rhFAPα (% exo inh @ 1 μM); for IC50: exopeptidase, read-out: rhFAPα (exo IC50).

The structures appear in SMILES notation. Counter-ions that a name gives are not always drawn. Like-named read-outs stand apart in the source and are kept apart here.

For 16 compounds, IC50 and inhibition results are on record in US11780821B2, “Inhibitors of fibroblast activation protein” (Praxis Biotech LLC, priority 2017, dated 2023).

T2 sequence (Q86TI2 whole entry): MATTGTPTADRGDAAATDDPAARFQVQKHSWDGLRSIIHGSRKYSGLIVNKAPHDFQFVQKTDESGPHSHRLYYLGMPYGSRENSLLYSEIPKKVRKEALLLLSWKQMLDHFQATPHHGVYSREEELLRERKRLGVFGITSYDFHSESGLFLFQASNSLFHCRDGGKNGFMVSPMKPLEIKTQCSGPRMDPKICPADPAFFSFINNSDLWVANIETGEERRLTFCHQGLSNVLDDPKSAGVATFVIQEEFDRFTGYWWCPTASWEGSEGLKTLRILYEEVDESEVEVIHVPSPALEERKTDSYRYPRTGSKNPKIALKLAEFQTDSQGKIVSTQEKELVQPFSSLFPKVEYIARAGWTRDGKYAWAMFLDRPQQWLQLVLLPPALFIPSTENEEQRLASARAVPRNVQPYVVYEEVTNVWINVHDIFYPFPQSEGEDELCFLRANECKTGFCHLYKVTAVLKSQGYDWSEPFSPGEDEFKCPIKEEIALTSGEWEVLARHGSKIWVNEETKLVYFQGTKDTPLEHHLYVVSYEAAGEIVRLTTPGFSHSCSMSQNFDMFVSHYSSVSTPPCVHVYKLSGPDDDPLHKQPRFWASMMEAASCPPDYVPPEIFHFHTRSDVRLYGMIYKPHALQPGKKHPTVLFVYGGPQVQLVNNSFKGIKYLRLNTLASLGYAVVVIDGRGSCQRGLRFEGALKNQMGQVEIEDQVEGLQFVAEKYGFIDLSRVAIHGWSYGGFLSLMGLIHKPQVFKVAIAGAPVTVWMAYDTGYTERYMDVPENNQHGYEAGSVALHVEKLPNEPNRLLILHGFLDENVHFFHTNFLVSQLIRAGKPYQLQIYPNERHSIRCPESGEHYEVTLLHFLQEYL

Consider `N#C[C@@H]1CC(F)(F)CN1C(=O)CNC(=O)c1ccncc1-c1ccnc2ccccc12` [Compound 51, (S)—N-(2-(2-cyano-4,4-difluoropyrrolidin-1-yl)-2-oxoethyl)-3-(quinolin-4-yl)isonicotinamide], for which the IC50 in experiment [1] is above 10 µM; in experiment [2] it was above 10 µM; in experiment [3], 1 to 10 µM; in experiment [4] (Table 2, Z-Gly-Pro-AMC), below 1 µM; in experiment [4] (Table 3), below 1 µM. Further, in experiment [4], the inhibition at 1 µM is above 50%.
With `N#C[C@@H]1CC(F)(F)CN1C(=O)CNC(=O)c1ccncc1-c1ccc(N)nc1` [Compound 107, (S)-6′-amino-N-(2-(2-cyano-4,4-difluoropyrrolidin-1-yl)-2-oxoethyl)-[3,3′-bipyridine]-4-carboxamide formate], the IC50 in experiment [1] is above 10 µM; in experiment [2], 1 to 10 µM; in experiment [3] it was 1 to 10 µM; in experiment [4] (Table 2, Z-Gly-Pro-AMC), below 1 µM; in experiment [4] (Table 3) it was below 1 µM. Further, in experiment [4], the inhibition at 1 µM was above 50%.
Regarding `N#C[C@@H]1CC(F)(F)CN1C(=O)CNC(=O)c1ccncc1C1=CCCCC1` [Compound 43, N-(2-((S)-2-cyano-4,4-difluoropyrrolidin-1-yl)-2-oxoethyl)-3-(cyclohex-1-en-1-yl)isonicotinamide], the IC50 in experiment [1] is above 10 µM; in experiment [2], 1 to 10 µM; in experiment [3] it was above 10 µM; in experiment [4] (Table 2, Z-Gly-Pro-AMC) it was below 1 µM; in experiment [4] (Table 3) it was below 1 µM. In addition, the inhibition at 1 µM in experiment [4] is above 50%.
For `N#C[C@@H]1CC(F)(F)CN1C(=O)CNC(=O)c1ccc(=O)n2c1CCCCC2` [Compound 21, (S)—N-(2-(2-cyano-4,4-difluoropyrrolidin-1-yl)-2-oxoethyl)-4-oxo-4,6,7,8,9,10-hexahydropyrido[1,2-a]azepine-1-carboxamide], the IC50 is 1 to 10 µM in experiment [1]; above 10 µM in experiment [2]; above 10 µM in experiment [3]; below 1 µM in experiment [4] (Table 2, Z-Gly-Pro-AMC); below 1 µM in experiment [4] (Table 3). In addition, the inhibition at 1 µM in experiment [4] is above 50%.
On to `N#C[C@@H]1CC(F)(F)CN1C(=O)CNC(=O)c1ccncc1Sc1ccccc1` [Compound 115, (S)—N-(2-(2-cyano-4,4-difluoropyrrolidin-1-yl)-2-oxoethyl)-3-(phenylthio)isonicotinamide], for which the half-maximal inhibitory concentration (IC50) in experiment [1] was 1 to 10 µM; in experiment [2], above 10 µM; in experiment [3], above 10 µM; in experiment [4] (Table 2, Z-Gly-Pro-AMC), below 1 µM; in experiment [4] (Table 3) it was below 1 µM. Also, the inhibition at 1 µM in experiment [4] was above 50%.
As to `N#C[C@@H]1CC(F)(F)CN1C(=O)CNC(=O)c1ccncc1NC1CCNCC1` [Compound 118, (S)—N-(2-(2-cyano-4,4-difluoropyrrolidin-1-yl)-2-oxoethyl)-3-(piperidin-4-ylamino)isonicotinamide], the IC50 in experiment [1] was above 10 µM; in experiment [2] it was above 10 µM; in experiment [3], above 10 µM; in experiment [4] (Table 2, Z-Gly-Pro-AMC) it was below 1 µM; in experiment [4] (Table 3), below 1 µM. Further, the inhibition at 1 µM in experiment [4] is above 50%.
On to `N#C[C@@H]1CC(F)(F)CN1C(=O)CNC(=O)c1ccncc1-c1ccc2c(c1)CCN2` [Compound 104, (S)—N-(2-(2-cyano-4,4-difluoropyrrolidin-1-yl)-2-oxoethyl)-3-(indolin-5-yl)isonicotinamide], for which the IC50 was above 10 µM in experiment [1]; above 10 µM in experiment [2]; above 10 µM in experiment [3]; below 1 µM in experiment [4] (Table 2, Z-Gly-Pro-AMC); below 1 µM in experiment [4] (Table 3). Besides, the inhibition at 1 µM in experiment [4] is above 50%.
On to `Cn1ccc2c(-c3cnccc3C(=O)NCC(=O)N3CC(F)(F)C[C@H]3C#N)cccc21` [Compound 66, (S)—N-(2-(2-cyano-4,4-difluoropyrrolidin-1-yl)-2-oxoethyl)-3-(1-methyl-1H-indol-4-yl)isonicotinamide], for which the 50% inhibitory concentration (IC50) is above 10 µM in experiment [1]; above 10 µM in experiment [2]; above 10 µM in experiment [3]; below 1 µM in experiment [4] (Table 2, Z-Gly-Pro-AMC); below 1 µM in experiment [4] (Table 3). For the same compound, in experiment [4], the inhibition at 1 µM was above 50%.
As for `N#C[C@@H]1CC(F)(F)CN1C(=O)CNC(=O)c1c[nH]c(=O)cc1-c1ccccc1` [Compound 29, (S)—N-(2-(2-cyano-4,4-difluoropyrrolidin-1-yl)-2-oxoethyl)-6-oxo-4-phenyl-1,6-dihydropyridine-3-carboxamide], the IC50 was above 10 µM in experiment [1]; above 10 µM in experiment [2]; 1 to 10 µM in experiment [3]; below 1 µM in experiment [4] (Table 2, Z-Gly-Pro-AMC); below 1 µM in experiment [4] (Table 3). The inhibition at 1 µM in experiment [4] is above 50%.
In the case of `N#C[C@@H]1CC(F)(F)CN1C(=O)CNC(=O)c1ccncc1N1CCCCC1` [Compound 42], the IC50 was above 10 µM in experiment [1]; above 10 µM in experiment [2]; above 10 µM in experiment [3]; below 1 µM in experiment [4] (Table 2, Z-Gly-Pro-AMC); below 1 µM in experiment [4] (Table 3). Moreover, the inhibition at 1 µM in experiment [4] is above 50%.
In the case of `N#C[C@@H]1CC(F)(F)CN1C(=O)CNC(=O)c1ccncc1Oc1ccc(F)cc1` [compound 35], the IC50 in experiment [1] is above 10 µM; in experiment [2] it was above 10 µM; in experiment [3], above 10 µM; in experiment [4] (Table 2, Z-Gly-Pro-AMC), below 1 µM. In addition, the inhibition at 1 µM in experiment [4] is above 50%.
Take `N#C[C@@H]1CC(F)(F)CN1C(=O)CNC(=O)c1ccncc1Nc1ccc(F)cc1` [Compound 114, (S)—N-(2-(2-cyano-4,4-difluoropyrrolidin-1-yl)-2-oxoethyl)-3-((4-fluorophenyl)amino)isonicotinamide 2,2,2-trifluoroacetate]: the IC50 in experiment [1] is above 10 µM; in experiment [2], above 10 µM; in experiment [3], above 10 µM; in experiment [4] (Table 2, Z-Gly-Pro-AMC) it was below 1 µM; in experiment [4] (Table 3) it was below 1 µM. For the same compound, the inhibition at 1 µM in experiment [4] is above 50%.
As to `CCOc1cnccc1C(=O)NCC(=O)N1CC(F)(F)C[C@H]1C#N` [Compound 113, (S)—N-(2-(2-cyano-4,4-difluoropyrrolidin-1-yl)-2-oxoethyl)-3-ethoxyisonicotinamide], the IC50 in experiment [1] is above 10 µM; in experiment [2] it was above 10 µM; in experiment [3], above 10 µM; in experiment [4] (Table 2, Z-Gly-Pro-AMC), below 1 µM; in experiment [4] (Table 3) it was below 1 µM. The inhibition at 1 µM in experiment [4] was above 50%.
With `N#C[C@@H]1CC(F)(F)CN1C(=O)CNC(=O)c1ccncc1Nc1cccnc1` [Compound 117, (S)—N-(2-(2-cyano-4,4-difluoropyrrolidin-1-yl)-2-oxoethyl)-3-(pyridin-3-ylamino)isonicotinamide], the IC50 in experiment [1] is 1 to 10 µM; in experiment [2], above 10 µM; in experiment [3] it was above 10 µM; in experiment [4] (Table 2, Z-Gly-Pro-AMC), below 1 µM; in experiment [4] (Table 3), below 1 µM. For the same compound, in experiment [4], the inhibition at 1 µM is above 50%.
As for `N#C[C@@H]1CC(F)(F)CN1C(=O)CNC(=O)c1ccncc1Nc1ccccc1` [Compound 102], the half-inhibitory concentration (IC50) was above 10 µM in experiment [1]; above 10 µM in experiment [2]; above 10 µM in experiment [3]; below 1 µM in experiment [4] (Table 2, Z-Gly-Pro-AMC); below 1 µM in experiment [4] (Table 3). Besides, the inhibition at 1 µM in experiment [4] was above 50%.
In the case of `Cc1ccc(-c2cnccc2C(=O)NCC(=O)N2CC(F)(F)C[C@H]2C#N)o1` [Compound 106, (S)—N-(2-(2-cyano-4,4-difluoropyrrolidin-1-yl)-2-oxoethyl)-3-(5-methylfuran-2-yl)isonicotinamide], the IC50 in experiment [1] is above 10 µM; in experiment [2], above 10 µM; in experiment [3] it was above 10 µM; in experiment [4] (Table 2, Z-Gly-Pro-AMC), below 1 µM; in experiment [4] (Table 3) it was below 1 µM. The inhibition at 1 µM in experiment [4] was above 50%.
